# Entries after “also recorded” stand apart in the source; their conditions may differ.
# Experiments:
# [1] = system: LLC1 cells; assay: LLC1-derived lung tumor nodules in mice; type: in vivo; details: FIG. 2
# Protocol: Mice were injected i.v. with LLC1 cells, and 24 h later injected i.p. with CQ (25 mg/kg body weight), CZT (10 mg/kg body weight), CQ+CZT (25 and 10 mg/kg, resp.) or vehicle once every day for 5 consecutive days. After 28 days, the lungs were scored for tumor nodules. *P<0.01 by Anova test.
# [2] = system: lung cancer cell lines (A549/EML4-ALK, A549, A549TR, H1299, KP-7B); assay: Apoptosis of lung cancer cells (ICC for active caspase-3, scored by confocal microscopy); type: cell-based; details: 24 h
# Protocol: Lung cancer cells treated with vehicle, CQ (100 nM), CZT (25 μM), and a combination of CZT (1 μM) and CQ (25 nM) for 24 h.
# [3] = system: Par-4 secretion; details: cited from earlier work
# [4] = system: GRP78 on lung cancer cell surface; assay: Analysis for GRP78 at the cell surface of lung cancer cells; type: cell-based; details: CZT (1 μM), 24 h, FIG. 1B
# Text: Analysis for GRP78 at the cell surface. Mean+SD shown. *P<0.01 by Anova or Student's t test. P>0.05 by Anova.
# A lack of cell surface […] expression may prevent secreted Par-4 from inducing apoptosis in cancer cells.
# [5] = system: Par-4; details: cancer patients, Phase 1 clinical trials; cited from earlier work
molecule,measurement,setting,value
"CCN(CC)CCCC(C)Nc1ccnc2cc(Cl)ccc12 (stereo not drawn) [CQ, Chloroquine]","inhibition of lung tumor nodules by CQ in the presence of CZT, relative to CZT or CQ administered separately","[1]; LLC1-derived nodules in mice, CQ 25 mg/kg + CZT 10 mg/kg i.p.",significantly greater inhibition
same,"apoptosis, CQ in conjunction with CZT added directly to cancer cells","[2]; combination of CZT (1 μM) and CQ (25 nM), P>0.05, FIG. 1C",did not induce apoptosis
same,Par-4 secretion from lung cancer cells,[3]; lung cancer cells,did not show secretion of Par-4
same,Par-4 secretion from normal cells,"[3]; normal cells, cell culture and mice",increased Par-4 secretion from normal cells
"C[C@@H](Oc1cc(-c2cnn(C3CCNCC3)c2)cnc1N)c1c(Cl)ccc(F)c1Cl [CZT, Crizotinib]",inhibition of lung tumor growth (lung tumor nodules),"[1]; LLC1 cells i.v., i.p. CQ 25 mg/kg, CZT 10 mg/kg, once daily for 5 days, lungs scored after 28 days",significant inhibition of lung tumor growth; also recorded: showed an effect
same,GRP78 expression at the cell surface,[4],upregulates GRP78 expression on the surface of lung cancer cells; also recorded: elevation of Par-4 receptor GRP78 on lung tumor cell surface
"CCN(CCO)CCCC(C)Nc1ccnc2cc(Cl)ccc12 (stereo not drawn) [HCQ, hydroxychloroquine]",Par-4 levels in plasma,[5],elevated Par-4 levels in the plasma
same,apoptosis in patients' tumors,[5],induced apoptosis in their tumors
"recombinant Par-4: recombinant tumor suppressor Prostate Apoptosis Response-4 protein, binds receptor GRP78 (protein, UniProt Q96IZ0 1-340, looked up) PRKC apoptosis WT1 regulator …: MATGGYRTSSGLGGSTTDFLEEWKAKREKMRAKQNPPGPAPPGGGSSDAAGKPPAGALGTPAAAAANELNNNLPGGAPAAPAVPGPGGVNCAVGSAMLTRAAPGPRRSEDEPPAASASAAPPPQRDEEEPDGVPEKGKSSGPSARKGKGQIEKRKLREKRRSTGVVNIPAAECLDEYEDDEAGQKERKREDAITQQNTIQNEAVNLLDPGSSYLLQEPPRTVSGRYKSTTSVSEEDVSSRYSRTDRSGFPRYNRDANVSGTLVSSSTLEKKIEDLEKEVVRERQENLRLVRLMQDKEEMIGKLKEEIDLLNRDLDDIEDENEQLKQENKTLLKVVGQLTR","apoptosis (active caspase-3 positive cells), CZT together with recombinant Par-4","[2]; CZT (1 μM) + recombinant Par-4 (100 nM), A549/EML4-ALK, A549, A549TR, H1299, KP-7B cells, FIG. 1A",increased apoptosis

# — US20210046063A1 (University of Kentucky Research Foundation, priority 2019, published 2021)
